{
  "source": "patent US11224577B2",
  "about": "“Treating infection by a platelet-targeting microbe using nanoparticles” (The Regents of the University of California, priority 2015, dated 2022)",
  "format": "physicochemical",
  "experimental": "100 nm polymeric cores were prepared using 0.67 dL g^−1 carboxyl-terminated 50:50 poly(lactic-co-glycolic) acid (PLGA) (LACTEL Absorbable Polymers) in a nanoprecipitation process. 1 mL of 10 mg mL^−1 PLGA solution in acetone was added dropwise to 3 mL of water. For fluorescently labeled nanoformulations, 1,1′-dioctadecyl-3,3,3′,3′-tetramethylindodicarbocyanine perchlorate (DiD, ex=644 nm/em=665 nm, Life Technologies) was loaded into the polymeric cores at 0.1 wt %. The mixture was then stirred in open air for 1 h and placed in vacuum for another 3 h. The resulting nanoparticle solution was filtered with 10 kDa MWCO Amicon Ultra-4 Centrifugal Filters (Millipore). Platelet membrane cloaking was then accomplished by dispersing and fusing platelet membrane vesicles with PLGA particles via sonication using an FS30D bath sonicator at a frequency of 42 kHz and a power of 100 W for 2 min. […] The nanoparticle solutions were subject to either a freeze-thaw cycle or lyophilization followed by resuspension. The resulting particle solution was then monitored for particle size using DLS. […] RBCNPs were prepared using the same polymeric cores and RBC membranes of equivalent total surface area to the platelet membranes using a previously described protocol^16.",
  "data": [
    {"substance": "PNPs", "values": [
      {"measurement": "colloidal stability", "result": "Improved colloidal stability"},
      {"measurement": "size and stability after storage", "result": "retain their size and stability"}
    ]}
  ]
}
